“Also recorded” adds a separate entry of the source.
Key:
TNFα = assay: LPS-induced TNFα secretion from BV2 cells (CBA assay); assay type: cell-based, murine; conditions: for suppression of TNFα production vs control: 100 ng/mL LPS 24 hours
Procedure: Lipopolysaccharide (LPS) is a natural ligand of the TLR4/CD14 complex, which is highly expressed on myeloid cells
LPS was used to induce cytokine secretion from BV-2 cells. Cells were incubated with TQS-168 at various concentrations to assess whether TQS-168 could suppress the LPS-promoted release of various cytokines from in vitro cell cultures. Cytokine secretion was measured by cytometric bead array (CBA) fluorescence-activated cell sorting (FACS).
Briefly, a vial of BV2 frozen stock (1 million cells per ml in complete medium) was thawed into 10 mL of complete medium per vial for a total of 4 vials. The vials were then centrifuged at 1800 rpm for 3 minutes to wash away freezing media. The four vials were then pooled into 25 mL of complete medium. TQS-168 was prepared in DMSO.
Cells were incubated for 24 hours in the presence of medium (negative control), LPS (positive control), DMSO+LPS (positive control, controlling additionally for presence of DMSO in the TQS-168 stock solution), or LPS+TQS-168 at final concentrations of 1 μM, 5 μM, 10 μM, and 20 μM.
After the well plates were incubated overnight for 24 hours, they were centrifuged at 1800 rpm for 5 minutes. Next, 150 μl from each well was transferred to a new set of plates, of which 50 μl was used for CBA. The plates were then centrifuged with the cells, followed by addition of 100 μL of DAPI (50 ml of PBS+10 μL of DAPI stock at 1:5000 dilution). The plates were then incubated in the dark for 5 minutes, followed by addition of 100 μL of PBS and centrifuged at 1800 rpm for 5 minutes. Finally, the plates were resuspended in 200 μL of PBS and tested.
Multiplexed cytometric bead array (CBA) assay was performed according to standard techniques to detect presence in the cell culture medium of secreted murine TNFα, IL-6, IFNγ, IL-12, monocyte chemoattractant protein 1 (MCP-1), and IL-10.
A total of 4-11 replicates of BV2 cultures in different conditions were investigated. […]

[1] = test system: murine models of neurodegenerative diseases; conditions: mice, oral 25-50 mg/kg; Parkinson's disease, Alzheimer's disease, ALS models; cited from earlier work
[2] = Phase 1 single ascending dose (SAD) trial, plasma pharmacokinetics (Part 1); conditions: human; for Frel AUC(0-inf)/D / Frel AUC(0-last)/D / Frel Cmax/D: dose normalized comparison to Regimen C 540 mg MC; for AUC(0-t) / AUC(0-inf) / Cmax / half-life / Tmax: male, in vivo, po, single dose; for AUC(0-t) / AUC(0-inf) / Cmax / Tmax: human plasma; for half-life: T1/2, human plasma; for Tmax: median
[3] = 90 mg SDD, fasted (Regimen G) versus fed (Regimen F)
[4] = 180 mg HME (Regimen E) compared to MC counterpart (Regimen B)
[5] = 180 mg SDD (Regimen D) compared to MC counterpart (Regimen B)
[6] = MC formulation, 60 mg to 540 mg TQS-168 (9-fold increase in dose)
[7] = MC formulation, 180 mg to 540 mg TQS-168 (3-fold increase in dose)
[8] = SDD fasted, 270 mg (Regimen H) vs 90 mg (Regimen G)
[9] = SDD fasted, 270 mg (Regimen H) vs 180 mg (Regimen D)
[10] = Regimen D 180 mg SDD, geometric mean
[11] = Regimen E 180 mg HME, comparison to Regimen D 180 mg SDD, geometric mean
[12] = Regimen E 180 mg HME, geometric mean
[13] = 60 mg, Regimen A: 60 mg TQS-168 MC oral suspension, fasted, geometric mean
[14] = 60 mg, Regimen A: 60 mg TQS-168 MC oral suspension, fasted
[15] = 90 mg, Regimen F: 90 mg TQS-168 SDD oral suspension, fed (high fat breakfast), geometric mean
[16] = 90 mg, Regimen G: 90 mg TQS-168 SDD oral suspension, fasted, geometric mean
[17] = 90 mg, Regimen G: 90 mg TQS-168 SDD oral suspension, fasted
[18] = 180 mg, Regimen B: 180 mg TQS-168 MC oral suspension, fasted, geometric mean
[19] = 180 mg, Regimen D: 180 mg TQS-168 SDD oral suspension, fasted, geometric mean
[20] = 180 mg, Regimen E: 180 mg TQS-168 HME oral suspension, fasted, geometric mean
[21] = 180 mg, Regimen B: 180 mg TQS-168 MC oral suspension, fasted
[22] = 180 mg, Regimen D: 180 mg TQS-168 SDD oral suspension, fasted
[23] = 180 mg, Regimen E: 180 mg TQS-168 HME oral suspension, fasted
[24] = 270 mg, Regimen H: 270 mg TQS-168 SDD oral suspension, fasted, geometric mean
[25] = 270 mg, Regimen H: 270 mg TQS-168 SDD oral suspension, fasted
[26] = 540 mg, Regimen C: 540 mg TQS-168 MC oral suspension, fasted, geometric mean
[27] = 540 mg, Regimen C: 540 mg TQS-168 MC oral suspension, fasted

In the case of CC(C)(C)c1ccc(-c2nc3ccccc3[nH]2)cc1 [TQS-168, 2-(4-tert-butylphenyl)-1H-benzimidazole], the “suppression of TNFα production vs control” value (TNFα; 5 μM) is reported as “can suppress TNFα production; also recorded: inhibition of TNFα production”, the “suppression of TNFα production vs control” value (TNFα; 20 μM) is reported as “can suppress TNFα production; also recorded: inhibition of TNFα production” and the “reduction of LPS-induced TNFα secretion, dose response” value (TNFα; 1-20 μM) is reported as “concentration-dependent; also recorded: dose-responsive inhibition”. For the same compound, the “myeloid-mediated inflammation and disease severity” value [1] was “suppress myeloid-mediated inflammation and reduce disease severity”, the “increase in AUC(0-inf)” value [2, 3] was about 14% and the “increase in Cmax” value [2, 3] was “approximately 136%”. The “fold increase in geometric mean AUC(0-inf)” value [2, 4] was 2.06 fold, the “fold increase in geometric mean AUC(0-last)” value [2, 4] was 2.14 fold and the “fold increase in geometric mean Cmax” value [2, 4] was 2.32 fold. The “fold increase in geometric mean AUC(0-inf)” value [2, 5] was 3.45 fold, the “fold increase in geometric mean AUC(0-last)” value [2, 5] was 3.64 fold and the “fold increase in geometric mean Cmax” value [2, 5] was 4.11 fold. The “fold increase in AUC(0-24)” value [2, 6] was 20.2 fold, the “fold increase in AUC(0-inf)” value [2, 6] was 21.2 fold and the “fold increase in Cmax” value [2, 6] was 12.1 fold. The “fold increase in AUC(0-24)” value [2, 7] was 8.8 fold, the “fold increase in AUC(0-inf)” value [2, 7] was 9.5 fold and the “fold increase in Cmax” value [2, 7] was 6.1 fold. The “fold increase in AUC(0-inf)” value [2, 8] was 4.29 fold, the “fold increase in Cmax” value [2, 8] was 2.14 fold and the “increase in AUC(0-inf)” value [2, 9] was about 26%. The “increase in Cmax” value [2, 9] was “approximately 8.7%”, the “Frel AUC(0-inf)/D” value [2, 10] was 118% and the “Frel AUC(0-last)/D” value [2, 10] was 120%. For the same compound, the “Frel Cmax/D” value [2, 10] was 218%, the “Frel AUC(0-inf)” value [2, 11] was 59.6% and the “Frel AUC(0-last)” value [2, 11] was 58.9%. For the same compound, the “Frel Cmax” value [2, 11] was 56.6%, the “Frel AUC(0-inf)/D” value [2, 12] was 70.4% and the “Frel AUC(0-last)/D” value [2, 12] was 70.9%. For the same compound, the “Frel Cmax/D” value [2, 12] was 124%, the AUC(0-t) ([2]; 60 mg, AUC(0-24), Regimen A: 60 mg TQS-168 MC oral suspension, fasted, geometric mean) was 0.0712 µg·h/mL and the AUC(0-inf) [2, 13] was 0.0727 µg·h/mL. For the same compound, the AUC(0-t) ([2]; 60 mg, AUC(0-last), Regimen A: 60 mg TQS-168 MC oral suspension, fasted, geometric mean) was 0.0676 µg·h/mL, the Cmax [2, 14] was 0.11 µM and the Cmax [2, 13] was 0.0267 µg/mL. It also gave a half-life [2, 13] of 3.06 h, a Tmax [2, 14] of 1 h and an AUC(0-t) ([2]; 90 mg, AUC(0-24), Regimen F: 90 mg TQS-168 SDD oral suspension, fed (high fat breakfast), geometric mean) of 0.168 µg·h/mL. For the same compound, the AUC(0-t) ([2]; 90 mg, AUC(0-24), Regimen G: 90 mg TQS-168 SDD oral suspension, fasted, geometric mean) was 0.192 µg·h/mL, the AUC(0-inf) [2, 15] was 0.171 µg·h/mL and the AUC(0-inf) [2, 16] was 0.195 µg·h/mL. It also gave an AUC(0-t) ([2]; 90 mg, AUC(0-last), Regimen F: 90 mg TQS-168 SDD oral suspension, fed (high fat breakfast), geometric mean) of 0.166 µg·h/mL, an AUC(0-t) ([2]; 90 mg, AUC(0-last), Regimen G: 90 mg TQS-168 SDD oral suspension, fasted, geometric mean) of 0.189 µg·h/mL and a Cmax [2, 15] of 0.0471 µg/mL. The Cmax ([2]; 90 mg, Regimen F: 90 mg TQS-168 SDD oral suspension, fed) was 0.19 µM, the Cmax [2, 17] was 0.44 µM and the Cmax [2, 16] was 0.111 µg/mL. For the same compound, the half-life [2, 15] was 3.52 h, the half-life [2, 16] was 4.85 h and the Tmax ([2]; 90 mg, Regimen F: 90 mg TQS-168 SDD oral suspension, fed (high fat breakfast)) was 1.5 h. It also gave a Tmax [2, 17] of 0.5 h, an AUC(0-t) ([2]; 180 mg, AUC(0-24), Regimen B: 180 mg TQS-168 MC oral suspension, fasted, geometric mean) of 0.163 µg·h/mL and an AUC(0-t) ([2]; 180 mg, AUC(0-24), Regimen D: 180 mg TQS-168 SDD oral suspension, fasted, geometric mean) of 0.608 µg·h/mL. For the same compound, the AUC(0-t) ([2]; 180 mg, AUC(0-24), Regimen E: 180 mg TQS-168 HME oral suspension, fasted, geometric mean) was 0.358 µg·h/mL, the AUC(0-inf) [2, 18] was 0.18 µg·h/mL and the AUC(0-inf) [2, 19] was 0.621 µg·h/mL. For the same compound, the AUC(0-inf) [2, 20] was 0.37 µg·h/mL, the AUC(0-t) ([2]; 180 mg, AUC(0-last), Regimen B: 180 mg TQS-168 MC oral suspension, fasted, geometric mean) was 0.168 µg·h/mL and the AUC(0-t) ([2]; 180 mg, AUC(0-last), Regimen D: 180 mg TQS-168 SDD oral suspension, fasted, geometric mean) was 0.611 µg·h/mL. The AUC(0-t) ([2]; 180 mg, AUC(0-last), Regimen E: 180 mg TQS-168 HME oral suspension, fasted, geometric mean) was 0.36 µg·h/mL, the Cmax [2, 21] was 0.21 µM and the Cmax [2, 18] was 0.0531 µg/mL. For the same compound, the Cmax [2, 22] was 0.87 µM, the Cmax [2, 19] was 0.218 µg/mL and the Cmax [2, 23] was 0.49 µM. For the same compound, the Cmax [2, 20] was 0.123 µg/mL, the half-life [2, 18] was 7.36 h and the half-life [2, 19] was 5.64 h. The half-life [2, 20] was 7.25 h, the Tmax [2, 21] was 1 h and the Tmax [2, 22] was 1 h. The Tmax [2, 23] was 1.5 h, the AUC(0-t) ([2]; 270 mg, AUC(0-24), Regimen H: 270 mg TQS-168 SDD oral suspension, fasted, geometric mean) was 0.736 µg·h/mL and the AUC(0-inf) [2, 24] was 0.836 µg·h/mL. For the same compound, the AUC(0-t) ([2]; 270 mg, AUC(0-last), Regimen H: 270 mg TQS-168 SDD oral suspension, fasted, geometric mean) was 0.801 µg·h/mL, the Cmax [2, 25] was 0.95 µM and the Cmax [2, 24] was 0.237 µg/mL. The half-life [2, 24] was 10.4 h, the Tmax [2, 25] was 1.5 h and the AUC(0-t) ([2]; 540 mg, AUC(0-24), Regimen C: 540 mg TQS-168 MC oral suspension, fasted, geometric mean) was 1.44 µg·h/mL. It also gave an AUC(0-inf) [2, 26] of 1.6 µg·h/mL, an AUC(0-t) ([2]; 540 mg, AUC(0-last), Regimen C: 540 mg TQS-168 MC oral suspension, fasted, geometric mean) of 1.54 µg·h/mL and a Cmax [2, 27] of 1.29 µM. The Cmax [2, 26] was 0.323 µg/mL, the half-life [2, 26] was 10.1 h and the Tmax [2, 27] was 2.25 h.

Reference: patent US20250281462A1, “THERAPEUTICALLY EFFECTIVE ORAL ADMINISTRATION OF A 2 ARYLBENZIMIDAZOLE” (Tranquis Therapeutics, Inc., priority 2021, published 2025)
